According to ChEMBL document CHEMBL1201862, “PubChem BioAssay data set” (2004):
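48-hour exposure; five concentrations; linearly interpolated endpoints. GI50 marks 50% less growth.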 Active and inactive are the calls of the source. No stated cut-off is given here; in the data, active = GI50 up to about 1.1 µM and inactive = higher.

Tests used:
Assay in all cases: NCI anticancer screen, dose series, 48 h
SK-MEL-2 = test system: SK-MEL-2
DLD-1 = test system: DLD-1
ACHN = test system: ACHN
SR = test system: SR
SF-295 = test system: SF-295
SF-268 = test system: SF-268
SW-620 = test system: SW-620
OVCAR-5 = test system: OVCAR-5
DMS-273 = test system: DMS-273
SF-539 = test system: SF-539
NCI-H522 = test system: NCI-H522
SNB-19 = test system: SNB-19
SK-OV-3 = test system: SK-OV-3
NCI-H23 = test system: NCI-H23
UO-31 = test system: UO-31
HOP-62 = test system: HOP-62
XF498 = test system: XF498
SN12C = test system: SN12C
OVCAR-3 = test system: OVCAR-3
SK-MEL-28 = test system: SK-MEL-28
IGROV-1 = test system: IGROV-1
OVCAR-4 = test system: OVCAR-4
HCC 2998 = test system: HCC 2998
TK-10 = test system: TK-10
MOLT-4 = test system: MOLT-4
SNB-75 = test system: SNB-75
RXF 631 = test system: RXF 631
SNB-78 = test system: SNB-78
HL-60 = test system: HL-60
KM-20L2 = test system: KM-20L2
M14 = test system: M14
786-0 = test system: 786-0
HT-29 = test system: HT-29
NCI-H226 = test system: NCI-H226
CAKI-1 = test system: CAKI-1
RPMI-8226 = test system: RPMI-8226
KM12 = test system: KM12
NCI-H460 = test system: NCI-H460
LXFL 529 = test system: LXFL 529
HOP-92 = test system: HOP-92
LOX IMVI = test system: LOX IMVI
OVCAR-8 = test system: OVCAR-8
K562 = test system: K562
HCT-116 = test system: HCT-116
UACC-257 = test system: UACC-257
A549 = test system: A549
COLO 205 = test system: COLO 205
Malme-3M = test system: Malme-3M
UACC-62 = test system: UACC-62
HCT-15 = test system: HCT-15

Measured: GI50

O=C(CCC(=O)Nc1cccc(Cl)c1)CC(=O)c1ccc(Cl)cc1
> 100 µM: HCT-15
inactive: SK-MEL-2 > 100 µM | DLD-1 > 10 µM | ACHN > 100 µM | SR > 100 µM | SF-295 > 100 µM | SF-268 > 100 µM | SW-620 > 100 µM | OVCAR-5 > 100 µM | DMS-273 > 100 µM | SF-539 > 100 µM | NCI-H522 > 100 µM | SNB-19 > 100 µM | SK-OV-3 > 100 µM | NCI-H23 > 100 µM | UO-31 > 100 µM | HOP-62 > 100 µM | XF498 > 100 µM | SN12C > 100 µM | OVCAR-3 > 100 µM | SK-MEL-28 > 100 µM | IGROV-1 > 100 µM | OVCAR-4 > 100 µM | HCC 2998 > 100 µM | TK-10 > 100 µM | MOLT-4 > 100 µM | SNB-75 > 100 µM | RXF 631 > 100 µM | SNB-78 > 100 µM | HL-60 > 100 µM | KM-20L2 > 100 µM | M14 > 100 µM | 786-0 > 100 µM | HT-29 > 100 µM | NCI-H226 > 100 µM | CAKI-1 > 100 µM | RPMI-8226 > 100 µM | KM12 > 100 µM | NCI-H460 > 100 µM | LXFL 529 > 100 µM | HOP-92 > 100 µM | LOX IMVI > 100 µM | OVCAR-8 > 100 µM | K562 > 100 µM | HCT-116 > 100 µM | UACC-257 > 100 µM | A549 > 100 µM | COLO 205 > 100 µM | Malme-3M > 100 µM | UACC-62 > 100 µM
